Where “and” joins values, the source holds several entries; their conditions need not be identical. Equal entries are not always repeated. Inconclusive results and toxic doses are left out. Non-standard residues stand in square brackets, D forms with d. Residues, ends and D or L forms follow the SMILES beside them. ξ: configuration not given here. ξF = NC(Cc1ccccc1)C(=O)O
System: BDF1 mice, P388 leukemia ip, median survival T/C
Test: NCI In Vivo Anticancer Drug Screen. Data for tumor model P388 Leukemia (intraperitoneal) in B6D2F1 (BDF1) mice
Details: endpoint: median survival time, higher = longer survival
In short: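 In tumour-bearing mice, survival after compound treatment is set against the vehicle group and given as a quotient.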

[1] = dose: 50.0 mg/kg/injection, schedule: Q01DX009 (ip), vehicle: saline with Tween-80
[2] = dose: 100.0 mg/kg/injection, schedule: Q01DX009 (ip), vehicle: saline with Tween-80
[3] = dose: 200.0 mg/kg/injection, schedule: Q01DX009 (ip), vehicle: saline with Tween-80
[4] = dose: 100.0 mg/kg/injection, schedule: Q01DX009 (ip), vehicle: Klucel (hydroxypropylcellulose) (HPC)
[5] = dose: 100.0 mg/kg/injection, schedule: Q04DX003 (ip), vehicle: Klucel (hydroxypropylcellulose) (HPC)
[6] = dose: 200.0 mg/kg/injection, schedule: Q04DX003 (ip), vehicle: Klucel (hydroxypropylcellulose) (HPC)
[7] = dose: 400.0 mg/kg/injection, schedule: Q04DX003 (ip), vehicle: Klucel (hydroxypropylcellulose) (HPC)
[8] = dose: 100.0 mg/kg/injection, schedule: Q04DX003 (ip), vehicle: saline
[9] = dose: 200.0 mg/kg/injection, schedule: Q04DX003 (ip), vehicle: saline
[10] = dose: 100.0 mg/kg/injection, schedule: Q04DX003 (ip), vehicle: saline with Tween-80
[11] = dose: 200.0 mg/kg/injection, schedule: Q01DX009 (ip), vehicle: Klucel (hydroxypropylcellulose) (HPC)

`CC(=O)OC1C=CCC2C(=O)C3=C(C(=O)c4ccccc4C3=O)C(=O)C12` (configuration not stated) was tested, and the T/C (dose: 3.12 mg/kg/injection, schedule: Q01DX009 (ip), vehicle: saline with Tween-80) was 98 % of control, the T/C (dose: 6.25 mg/kg/injection, schedule: Q01DX009 (ip), vehicle: saline with Tween-80) was 98 % of control and the T/C (dose: 12.5 mg/kg/injection, schedule: Q01DX009 (ip), vehicle: saline with Tween-80) was 107 % of control. For the same molecule, the T/C (dose: 25.0 mg/kg/injection, schedule: Q01DX009 (ip), vehicle: saline with Tween-80) was 112 % of control and the T/C [1] was 112 % of control.

For `FC(F)(F)c1cccc(C(c2ccccc2)(c2ccccc2)n2cncn2)c1`, the T/C [1] was 114 % of control, the T/C [2] was 109 % of control and the T/C [3] was 100 % of control.

`CCCCn1cnc2c(SC)nc(N)nc21` was tested, and the T/C (dose: 66.0 mg/kg/injection, schedule: Q01DX009 (ip), vehicle: Klucel (hydroxypropylcellulose) (HPC)) was 95 % of control, the T/C [4] was 104 % of control and the T/C [5] was 100 % of control. For the same molecule, the T/C (dose: 150.0 mg/kg/injection, schedule: Q01DX009 (ip), vehicle: Klucel (hydroxypropylcellulose) (HPC)) was 100 % of control, the T/C [6] was 90 % of control and the T/C [7] was 90 % of control.

With `NC(Cc1ccccc1)C(=O)NCC(=O)O` (configuration not stated) (H-[ξF]-Gly-OH) the T/C [8] was 100 % of control, the T/C [9] was 100 % of control and the T/C (dose: 400.0 mg/kg/injection, schedule: Q04DX003 (ip), vehicle: saline) was 100 % of control.

For `COc1cccc2c1C(=O)c1c(O)c3c(c(O)c1C2=O)CC(O)(/C(C)=N/NC(=O)CCCCCCCCC(=O)N/N=C(\C)C1(O)Cc2c(O)c4c(c(O)c2C(OC2CC(N)C(O)C(C)O2)C1)C(=O)c1c(OC)cccc1C4=O)CC3OC1CC(N)C(O)C(C)O1` (configuration not stated), the T/C (dose: 3.13 mg/kg/injection, schedule: Q01DX009 (ip), vehicle: water) was 172 % of control, the T/C (dose: 6.25 mg/kg/injection, schedule: Q01DX009 (ip), vehicle: water) was 210 % of control and the T/C (dose: 25.0 mg/kg/injection, schedule: Q01DX009 (ip), vehicle: water) was 88 % of control.

In the case of `O=C(Nc1ccc(C2=NCCN2)cc1)c1ccc(C(=O)Nc2ccc(C3=NCCN3)cc2)c([N+](=O)[O-])c1`, the T/C (dose: 6.0 mg/kg/injection, schedule: Q01DX010 (ip), vehicle: saline) is reported as 163 % of control, the T/C (dose: 8.0 mg/kg/injection, schedule: Q01DX010 (ip), vehicle: saline) is reported as 168 % of control and the T/C (dose: 12.0 mg/kg/injection, schedule: Q01DX010 (ip), vehicle: saline) is reported as 113 % of control.

For `NC(N)=NCCCC(NC(=O)OCc1ccccc1)C(=O)O` (configuration not stated), the T/C [5] was 100 % of control, the T/C [6] was 104 % of control and the T/C [7] was 100 % of control.

For `CC(=O)[C@]1(O)Cc2c(O)c3c(c(O)c2[C@@H](OC2CC(N)C(O)C(C)O2)C1)C(=O)c1c(OC(C)C)cccc1C3=O` (some centres not stated), the T/C (dose: 6.25 mg/kg/injection, schedule: Q04DX003 (ip), vehicle: water) was 118 % of control, the T/C (dose: 12.5 mg/kg/injection, schedule: Q04DX003 (ip), vehicle: water) was 162 % of control and the T/C (dose: 50.0 mg/kg/injection, schedule: Q04DX003 (ip), vehicle: water) was 89 % of control.

With `C[C@]12C=CC(=O)C=C1CC[C@@H]1[C@@H]2CC[C@]2(C)OC(=O)CC[C@@H]12` the T/C [1] was 100 % of control, the T/C [2] was 86 % of control and the T/C [10] was 90 % of control. For the same molecule, the T/C [3] was 90 % of control and the T/C (dose: 200.0 mg/kg/injection, schedule: Q04DX003 (ip), vehicle: saline with Tween-80) was 90 % of control.

`COCC(N)=O` was tested, and the T/C (dose: 100.0 mg/kg/injection, schedule: Q01DX009 (ip), vehicle: saline) was 106 % of control, the T/C (dose: 200.0 mg/kg/injection, schedule: Q01DX009 (ip), vehicle: saline) was 97 % of control and the T/C (dose: 400.0 mg/kg/injection, schedule: Q01DX009 (ip), vehicle: saline) was 113 % of control.

For `CCN1CCCC(Nc2cc(C)nc(Nc3nc4cc(Cl)c(Cl)cc4[nH]3)n2)C1` (configuration not stated), the T/C (dose: 1.56 mg/kg/injection, schedule: Q01DX009 (ip), vehicle: Klucel (hydroxypropylcellulose) (HPC)) was 100 % of control, the T/C (dose: 3.12 mg/kg/injection, schedule: Q01DX009 (ip), vehicle: Klucel (hydroxypropylcellulose) (HPC)) was 90 % of control and the T/C (dose: 6.25 mg/kg/injection, schedule: Q01DX009 (ip), vehicle: Klucel (hydroxypropylcellulose) (HPC)) was 100 % of control.

For `CN(C)c1ccc(/C=C/c2cc(N(CCO)CCO)c3ccccc3n2)cc1`, the T/C [1] was 100 % of control, the T/C [2] was 99 % of control and the T/C [3] was 91 % of control.

In the case of `Cc1ccc(-c2c(O)c(Br)c(-c3ccc(C)cc3C)c(O)c2Br)c(C)c1`, the T/C [2] is reported as 100 % of control, the T/C [3] is reported as 100 % of control and the T/C (dose: 400.0 mg/kg/injection, schedule: Q01DX009 (ip), vehicle: saline with Tween-80) is reported as 100 % of control.

With `O=C1CC(c2ccc(O)cc2)CC(=O)C1C(C1CC=CCC1)N(CCCl)CCCl` (configuration not stated) the T/C [5] was 109 % of control and 87 % of control and the T/C [6] was 120 % of control.

`CC(=O)[O][Pb]([CH2]C(C)C)([CH2]C(C)C)[CH2]C(C)C` was tested, and the T/C (dose: 0.75 mg/kg/injection, schedule: Q01DX009 (ip), vehicle: Klucel (hydroxypropylcellulose) (HPC)) was 107 % of control, the T/C (dose: 1.5 mg/kg/injection, schedule: Q01DX009 (ip), vehicle: Klucel (hydroxypropylcellulose) (HPC)) was 109 % of control and the T/C (dose: 3.0 mg/kg/injection, schedule: Q01DX009 (ip), vehicle: Klucel (hydroxypropylcellulose) (HPC)) was 105 % of control. The T/C (dose: 6.0 mg/kg/injection, schedule: Q01DX009 (ip), vehicle: Klucel (hydroxypropylcellulose) (HPC)) was 107 % of control and the T/C (dose: 12.0 mg/kg/injection, schedule: Q01DX009 (ip), vehicle: Klucel (hydroxypropylcellulose) (HPC)) was 107 % of control.

`O=C(O)c1cc(Br)ccc1OCc1cccc(Cl)c1` was tested, and the T/C [10] was 99 % of control.

For `Cc1ccc(/C=C2/C=C(c3ccccc3)OC2=O)cc1`, the T/C (dose: 50.0 mg/kg/injection, schedule: Q01DX009 (ip), vehicle: Klucel (hydroxypropylcellulose) (HPC)) was 109 % of control, the T/C [4] was 109 % of control and the T/C [5] was 100 % of control. For the same molecule, the T/C [11] was 100 % of control, the T/C [6] was 95 % of control and the T/C [7] was 90 % of control.

In the case of `CCCCOC(=O)C(C)OC(=O)Nc1ccccc1` (configuration not stated), the T/C (dose: 100.0 mg/kg/injection, schedule: Q04DX003 (sc), vehicle: olive oil, sesame oil, peanut oil) is reported as 100 % of control, the T/C (dose: 200.0 mg/kg/injection, schedule: Q04DX003 (sc), vehicle: olive oil, sesame oil, peanut oil) is reported as 88 % of control and the T/C (dose: 400.0 mg/kg/injection, schedule: Q04DX003 (sc), vehicle: olive oil, sesame oil, peanut oil) is reported as 103 % of control.

With `CCOC(=O)C(CCCO)C(=O)OCC` the T/C (dose: 50.0 mg/kg/injection, schedule: Q01DX001 (ip), vehicle: saline with Tween-80) was 115 % of control, the T/C (dose: 100.0 mg/kg/injection, schedule: Q01DX001 (ip), vehicle: saline with Tween-80) was 100 % of control and the T/C (dose: 200.0 mg/kg/injection, schedule: Q01DX001 (ip), vehicle: saline with Tween-80) was 110 % of control.

For `CC1(C)SC(C)(C)N(C=O)C1C(=O)O` (configuration not stated), the T/C [4] was 90 % of control, the T/C [5] was 91 % of control and the T/C [11] was 109 % of control. The T/C [6] was 95 % of control, the T/C (dose: 400.0 mg/kg/injection, schedule: Q01DX009 (ip), vehicle: Klucel (hydroxypropylcellulose) (HPC)) was 90 % of control and the T/C [7] was 91 % of control.

For `COc1ccc(C(=O)/C=C/c2ccc(OCc3ccccc3)cc2)c(OC)c1`, the T/C [1] was 103 % of control, the T/C [2] was 94 % of control and the T/C [3] was 90 % of control.

For `CCOC(=O)C1NC(=S)NCC1=O` (configuration not stated), the T/C [4] was 110 % of control and the T/C [11] was 110 % of control.

For `COc1cc2c(cc1OC)C1CCN3CCCC3N1CC2` (configuration not stated), the T/C (dose: 100.0 mg/kg/injection, schedule: Q01DX001 (ip), vehicle: Klucel (hydroxypropylcellulose) (HPC)) was 109 % of control and the T/C (dose: 200.0 mg/kg/injection, schedule: Q01DX001 (ip), vehicle: Klucel (hydroxypropylcellulose) (HPC)) was 90 % of control.

`Cc1nnc(NC2=NCCO2)s1` was tested, and the T/C (dose: 50.0 mg/kg/injection, schedule: Q04DX003 (ip), vehicle: saline) was 86 % of control, the T/C [8] was 90 % of control and the T/C [9] was 90 % of control.
